Test systems include HS 578T breast; P388/ADR leukemia; DMS 114 small cell lung; LXFL 529 NSCLC; RXF-631 renal.
Holding throughout (test): NCI tumour cell line growth inhibition, 48 h

This note sets out measurements from PubChem BioAssay (NCI).

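Results reflect a 48-hour exposure of cells in 96-well plates to compound at five concentrations. Here, GI50 denotes the concentration required for 50% inhibition of growth. TGI: total growth inhibition.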 Some results are limits rather than exact numbers.

As for `COc1ccc(-c2nn(-c3ccc(NC(=O)Nc4cc(C(F)(F)F)cc(C(F)(F)F)c4)cc3)cc2-c2ccncc2)cc1Cl`, in the assay with HS 578T breast, the GI50 is 1.53 µM and the TGI worked out at 6.76 µM.

With `COc1ccc(C2COc3cc(O)c(O)cc3C2)cc1` (stereo unspecified), the TGI in the assay with P388/ADR leukemia came to 8.53 µM.

Consider `O=c1c(C(c2ccc(Cl)cc2)c2c(O)c3ccccc3n(-c3ccccc3)c2=O)c(O)c2ccccc2n1-c1ccccc1`, for which the TGI in the assay on DMS 114 small cell lung, in the assay on LXFL 529 NSCLC and with RXF-631 renal was greater than 100 µM each time.
